Drawing on patent publication US4461773A, “P-Oxooxazolidinylbenzene compounds as antibacterial agents” (E. I. DuPont de Nemours and Company, priority 1984, dated 1984), this text covers MIC and ED50 for 28 compounds.

Converted amounts (≈) assume the structure as drawn. Like-named read-outs stand apart in the source and are kept apart here.

One experiment concerns S. epidermidis. Briefly: In vitro broth microdilution minimal inhibitory concentration, S. epidermidis (Table I). Format: cell-based. The following applies: Staphylococcus epidermidis, read-out: MIC (minimal inhibitory concentration), S. epidermidis. The text has this:
(§1) A list is presented in Table I of analogs which exert an in-vitro antibacterial effect.

In experiment [1] the test system is E. Coli. Briefly: In vitro broth microdilution minimal inhibitory concentration, E. Coli (Table I). Format: cell-based. Conditions: Escherichia coli, read-out: MIC (minimal inhibitory concentration), E. Coli.
Excerpt: as §1

The test system of the next experiment is Staphylococcus aureus. Briefly: In vivo efficacy in mice infected intraperitoneally with Staphylococcus aureus (Table III). Conditions: 4 h, read-out: ED50, S. auerus. As to the method:
(§2) In-vivo efficacy determinations were performed by inoculating mice interaperitoneally with cultures of the infecting organism diluted to produce 90-100% mortality in control animals within seven days. The diluents used were trypticase soy broth for E. coli, Proteus sp. and Psuedomonas aeruginosa and 5% hog gastric mucin for Staphylococcus aureus infections. The compounds, dissolved or suspended in 0.25% methocel.cndot.H2 O were administered orally by intubation at the time of infection and again at four hours post-infection. Mortality was recorded daily until test termination and the 50 percent effective dose. ED50, was calculated by the Reed-Muench method (Reed, L. G. and Muench, H., "A simple method of estimating fifty percent end points." American Journal of Hygiene, 27, 1938, 493-497).

In experiment [2] the test system is E. coli. Briefly: In vivo efficacy in mice infected intraperitoneally with E. coli (Table III). Conditions: Escherichia coli, 4 h, read-out: ED50, E. Coli. As to the method:
as §2

Setting [3] is: broth microdilution, Mueller-Hinton broth, 24 hour.
[4] abbreviates: mice, intraperitoneal infection, 5% hog gastric mucin, oral dosing at infection and four hours post-infection, Reed-Muench.
[5] abbreviates: mice, intraperitoneal infection, trypticase soy broth, oral dosing at infection and four hours post-infection, Reed-Muench.

For `CN(C)S(=O)(=O)c1ccc(N2CC(CO)OC2=O)cc1` (racemic) [Example 3a, dl-N,N-dimethyl-4-[5-(hydroxymethyl)-2-oxooxazolidin-3-yl]benzenesulfonamide], the MIC with S. epidermidis (setting [3]) was 50 µg/mL (≈ 166 µM); in the experiment with E. Coli [1] (setting [3]), more than 200 µg/mL.

In the case of `CNS(=O)(=O)c1ccc(N2CC(CO)OC2=O)cc1` (racemic) [Example 3b, dl-N-methyl-4-[5-(hydroxymethyl)-2-oxooxazolidin-3-yl]benzenesulfonamide], the MIC in the experiment on S. epidermidis (setting [3]) was 50 µg/mL (≈ 175 µM); with E. Coli [1] (setting [3]), more than 200 µg/mL.

What is called ED50 is the dose that gives a 50% effect, or the effect in half of the subjects. Take `[N-]=[N+]=NS(=O)(=O)c1ccc(N2CC(CO)OC2=O)cc1` (racemic) [Example 4, dl-4-[5-(Hydroxymethyl)-2-oxooxazolidin-3-yl]benzenesulfonyl Azide]: the MIC with S. epidermidis (setting [3]) worked out at 4.2 µg/mL (≈ 14.1 µM); with E. Coli [1] (setting [3]) it was 12.5 µg/mL (≈ 41.9 µM). For the same compound, the ED50 in the experiment with Staphylococcus aureus (setting [4]) was found to be 26 mg/kg; with E. coli [2] (setting [5]), 17.9 mg/kg.

With `O=C1OC(CO)CN1c1ccc(S(=O)(=O)N(Cl)Cl)cc1` (racemic) [Example 11, dl-N,N-Dichloro-4-[5-(hydroxymethyl)-2-oxooxazolidin-3-yl]benzenesulfonamide], the MIC in the experiment with S. epidermidis (setting [3]) and with E. Coli [1] (setting [3]) was more than 100 µg/mL in each case. The values for the median effective dose (ED50) in the experiment with Staphylococcus aureus (setting [4]) and in the experiment with E. coli [2] (setting [5]) were 36.3 mg/kg and 53.7 mg/kg, respectively.

As for `O=C1OC(CO)CN1c1ccc(S(=O)(=O)NCl)cc1.[Na]` (racemic) [Example 13, dl-N-Chloro-4-[5-(hydroxymethyl)-2-oxooxazolidin-3-yl]benzenesulfonamide, sodium salt], the values for the MIC in the experiment on S. epidermidis (24 h) and in the experiment with E. Coli [1] (24 h) were 100 µg/mL and 200 µg/mL, respectively. The ED50 is 47.4 mg/kg in the experiment on Staphylococcus aureus (po) and 43.6 mg/kg with E. coli [2] (po).

With `CS(C)=NS(=O)(=O)c1ccc(N2CC(CO)OC2=O)cc1` (racemic) [Example 15, dl-N-{4-[5-(Hydroxymethyl)-2-oxooxazolidin-3-yl]-phenylsulfonyl}-S,S-dimethylsulfilimine], the MIC in the experiment with S. epidermidis (setting [3]) and in the experiment on E. Coli [1] (setting [3]) was more than 100 µg/mL in each case. Moreover, the ED50 with Staphylococcus aureus (setting [4]) is 48.5 mg/kg; with E. coli [2] (setting [5]) it was 118 mg/kg.

Regarding `NNS(=O)(=O)c1ccc(N2CC(CO)OC2=O)cc1` (racemic) [Example 16, dl-3-[4-Hydrazinosulfonyl)phenyl]-5-(hydroxymethyl)-2-oxazolidin-2-one], the MIC with S. epidermidis (setting [3]) and with E. Coli [1] (setting [3]) was more than 100 µg/mL each time. The ED50 in the experiment with Staphylococcus aureus (setting [4]) is 119 mg/kg; in the experiment with E. coli [2] (setting [5]), more than 360 mg/kg.

On to `CC(=O)OCC1CN(c2ccc(S(N)(=O)=O)cc2)C(=O)O1` (racemic) [Example 17, dl-4-[5-(Acetoxymethyl)-2-oxooxazolidin-3-yl]benzenesulfonamide], for which the MIC with S. epidermidis (setting [3]) and in the experiment with E. Coli [1] (setting [3]) was more than 50 µg/mL in each case. Further, the ED50 amounted to 47.1 mg/kg with Staphylococcus aureus (setting [4]) and 48.9 mg/kg in the experiment with E. coli [2] (setting [5]).

`CCC(=O)OCC1CN(c2ccc(S(N)(=O)=O)cc2)C(=O)O1` (racemic) [Example 19, dl-4-[5-(Propionyloxymethyl)-2-oxooxazolidin-3-yl]-benzenesulfonamide]: the MIC was 25 µg/mL (≈ 76.1 µM) in the experiment on S. epidermidis (setting [3]) and more than 100 µg/mL in the experiment on E. Coli [1] (setting [3]). Besides, the ED50 was 166 mg/kg in the experiment with Staphylococcus aureus (setting [4]) and more than 360 mg/kg in the experiment on E. coli [2] (setting [5]).

Consider `NS(=O)(=O)c1ccc(N2CC(COC(=O)CCC(=O)O)OC2=O)cc1` (racemic) [Example 20, dl-Butanedioic acid, Mono Ester with 4-[5-(Hydroxymethyl)-2-oxooxazolidin-3-yl]benzenesulfonamide], for which the MIC with S. epidermidis (setting [3]) and in the experiment with E. Coli [1] (setting [3]) was more than 100 µg/mL throughout. Also, the values for the median effective dose (ED50) with Staphylococcus aureus (setting [4]) and in the experiment with E. coli [2] (setting [5]) were 85.3 mg/kg and 77.3 mg/kg, respectively.

On to `O=C(NS(=O)(=O)c1ccc(N2CC(CO)OC2=O)cc1)C(Cl)Cl` (racemic) [Example 34, dl-2,2-Dichloro-N-[4-[5-(Hydroxymethyl)-2-oxooxazolidin-3-yl]phenylsulfonyl]acetamide], for which the MIC in the experiment with S. epidermidis (setting [3]) and in the experiment on E. Coli [1] (setting [3]) was more than 200 µg/mL in each case. For the same compound, the ED50 in the experiment on Staphylococcus aureus (setting [4]) was 18.3 mg/kg.

For the compound `O=C1OC(CO)CN1c1ccc(S(=O)(=O)NC(=O)C(Cl)(Cl)Cl)cc1` (racemic) [Example 35, dl-2,2,2-Trichloro-N-[4-[5-(hyroxymethyl)-2-oxooxazolidin-3-yl]phenylsulfonyl]acetamide], the MIC with S. epidermidis (setting [3]) and in the experiment on E. Coli [1] (setting [3]) was more than 200 µg/mL in each case. In the experiment with Staphylococcus aureus (setting [4]), the ED50 was 58.5 mg/kg.

As for `CC(=NO)c1ccc(N2CC(CO)OC2=O)cc1` (racemic) [Example 37, dl-5-Hydroxymethyl-3-[4-(1-hydroxyiminoethyl)phenyl]-2-oxazolidinone], the MIC in the experiment with S. epidermidis (setting [3]) and in the experiment with E. Coli [1] (setting [3]) was more than 50 µg/mL throughout. In addition, the ED50 in the experiment on Staphylococcus aureus (setting [4]) was determined as 68 mg/kg.

Turning to `CON=C(C)c1ccc(N2CC(CO)OC2=O)cc1` (racemic) [Example 38, dl-5-Hydroxymethyl-3-[4-(1-methoxyiminoethyl)phenyl]-2-oxazolidinone], the ED50 in the experiment on Staphylococcus aureus (setting [4]) turned out to be 76.6 mg/kg.

Take `CC(C)c1ccc(N2CC(CO)OC2=O)cc1` (racemic) [Example 39]: the ED50 in the experiment on Staphylococcus aureus (setting [4]) amounted to 116 mg/kg.

Take `C=CCOCC1CN(c2ccc(C(C)C)cc2)C(=O)O1` (racemic) [Example 40]: the ED50 in the experiment with Staphylococcus aureus (setting [4]) came out at 79.8 mg/kg.

As for `CC(=O)c1ccc(N2CC(CO)OC2=O)cc1` (racemic) [Example 41], the ED50 with Staphylococcus aureus (setting [4]) was determined as 35.8 mg/kg; with E. coli [2] (setting [5]), 97.6 mg/kg.

For `N#Cc1ccc(N2CC(CO)OC2=O)cc1` (racemic) [Example 42], the ED50 with Staphylococcus aureus (setting [4]) was found to be 66.4 mg/kg.

As to `O=C1OC(CO)CN1c1ccc([N+](=O)[O-])cc1` (racemic) [Example 43], the ED50 in the experiment with Staphylococcus aureus (setting [4]) is 40 mg/kg; with E. coli [2] (setting [5]) it was more than 360 mg/kg.

Take `NS(=O)(=O)c1ccc(N2CC(CO)OC2=O)cc1` (stereo not shown) [Example 1, 4-[5-(Hydroxymethyl)-2-oxooxazolidin-3-yl]benzenesulfonamide]: the MIC in the experiment with S. epidermidis (setting [3]) and in the experiment with E. Coli [1] (setting [3]) was 100 µg/mL (≈ 367 µM) throughout. The median effective dose (ED50) in the experiment on Staphylococcus aureus (setting [4]) is 40.2 mg/kg; with E. coli [2] (setting [5]), 19.7 mg/kg.

As for `[N-]=[N+]=NS(=O)(=O)c1ccc(N2C[C@@H](CO)OC2=O)cc1` [Example 5, l-4-[5-(Hydroxymethyl)-2-oxooxazolidin-3-yl]benzenesulfonyl Azide], the MIC with S. epidermidis (setting [3]) was 2.4 µg/mL (≈ 8.05 µM); with E. Coli [1] (setting [3]), 7.9 µg/mL (≈ 26.5 µM). For the same compound, the ED50 is 24.9 mg/kg in the experiment with Staphylococcus aureus (setting [4]) and 14.9 mg/kg in the experiment with E. coli [2] (setting [5]).

Turning to `CNS(=O)(=O)c1ccc(N2C[C@@H](CO)OC2=O)cc1` [Example 6, l-4-[5-(Hydroxymethyl)-2-oxooxazolidin-3-yl]-N-methylbenzenesulfonamide], the results for the MIC in the experiment with S. epidermidis (setting [3]) and in the experiment with E. Coli [1] (setting [3]) were 62.5 µg/mL (≈ 218 µM) and not below 200 µg/mL, respectively. Besides, the figures for the ED50 in the experiment on Staphylococcus aureus (setting [4]) and with E. coli [2] (setting [5]) were 15.4 mg/kg and 39.7 mg/kg, respectively.

As for `O=C1O[C@H](CO)CN1c1ccc(S(=O)(=O)NC2CC2)cc1` [Example 9, l-4-[5-(Hydroxymethyl)-2-oxooxazolidin-3-yl]-N-cyclopropylbenzenesulfonamide], the MIC in the experiment with S. epidermidis (setting [3]) and in the experiment on E. Coli [1] (setting [3]) was more than 100 µg/mL throughout. Also, the ED50 in the experiment with Staphylococcus aureus (setting [4]) is 89.2 mg/kg.

Take `CONS(=O)(=O)c1ccc(N2C[C@@H](CO)OC2=O)cc1` [Example 10, l-4-[5-(Hydroxymethyl)-2-oxooxazolidin-3-yl]-N-methoxybenzenesulfonamide]: the MIC with S. epidermidis (setting [3]) was 100 µg/mL (≈ 331 µM); with E. Coli [1] (setting [3]), more than 100 µg/mL. Also, the ED50 with Staphylococcus aureus (setting [4]) was 52 mg/kg.

Consider `COC[C@@H]1CN(c2ccc(SC)cc2)C(=O)O1` [Example 31, l-5-(Methoxymethyl)-3-[4-(methylthio)phenyl]-2-oxazolidinone], for which the MIC with S. epidermidis (setting [3]) and in the experiment on E. Coli [1] (setting [3]) was more than 200 µg/mL in each case. Moreover, the median effective dose (ED50) with Staphylococcus aureus (setting [4]) turned out to be 54.6 mg/kg.

In the case of `COC[C@@H]1CN(c2ccc(S(C)(=O)=O)cc2)C(=O)O1` [Example 32, l-5-(Methoxymethyl)-3-[4-(methylsulfonyl)phenyl]-2-oxazolidinone], the MIC is 100 µg/mL (≈ 350 µM) with S. epidermidis (setting [3]) and more than 200 µg/mL in the experiment on E. Coli [1] (setting [3]). In addition, the median effective dose (ED50) came to 5.1 mg/kg with Staphylococcus aureus (setting [4]) and 11.8 mg/kg with E. coli [2] (setting [5]).

In the case of `COC[C@@H]1CN(c2ccc(S(N)(=O)=O)cc2)C(=O)O1` [Example 33, l-4-[5-(Methoxymethyl)-2-oxooxazolidin-3-yl]benzenesulfonamide], the MIC with S. epidermidis (setting [3]) and with E. Coli [1] (setting [3]) was more than 200 µg/mL throughout. For the same compound, in the experiment with Staphylococcus aureus (setting [4]), the median effective dose (ED50) was 59.6 mg/kg.

`CC(=O)NS(=O)(=O)c1ccc(N2CC(CO)OC2=O)cc1` (stereo not shown) [Example 36, N-[4-[5-(Hydroxymethyl)-2-oxooxazolidin-3-yl]phenylsulfonyl]acetamide]: the MIC with S. epidermidis (setting [3]) and with E. Coli [1] (setting [3]) was more than 100 µg/mL in each case. The ED50 with Staphylococcus aureus (setting [4]) was more than 120 mg/kg; in the experiment with E. coli [2] (setting [5]) it was 56.9 mg/kg.
